Data taken from patent publication US9988377B2, “Small molecule inducers of GDNF as potential new therapeutics for neuropsychiatric disorders” (THE TRUSTEES OF COLUMBIA UNIVERSITY IN THE CITY OF NEW YORK, priority 2011, dated 2018).

What follows are compounds tested on GDNF release from C6 glioma cells (assay: GDNF in-situ ELISA in C6 glioma cells). Conditions: 10 μM compound, 48-hour incubation, fold over control release, corrected for pre-treatment release.
Assay type: cell-based
Experimental: The GDNF Emax Immunoassay System from Promega (Madison, Wis.) was used to determine small molecule induced GDNF release from C6 glioma cells (ATCC, Manassas, Va.) with the following protocol. A 96-well ELISA plate was sterilized with UV for 30 minutes. The plate was coated with 100 μl/well of the anti-GDNF monoclonal antibody solution in carbonate coating buffer prepared per the manufacturer's instructions, and incubated overnight at 4° C. The antibody coating buffer was removed from the plate, which was then blocked according to the instructions in the kit. The plate was then incubated with 200 μl/well complete growth medium ([…], 5% FBS, 1% penicillin/streptomycin) for 2×1 h at rt to remove residue of the blocking buffer. After these washes were complete, fresh culture media was added to the wells. C6 cells were seeded at a density of 11,000 cells/well, with a total volume of approximately 150 μl in each well. The plate was incubated at 37° C. in an atmosphere containing 5% CO2. After 24 hours, complete growth medium was replaced with low serum medium (98.5% DMEM, 0.5% FBS, 1% penicillin/streptomycin) and the plate was incubated overnight for cellular synchronization. On the following day, cells were treated with experimental compounds for the indicated time. We used 10 μM concentrations of the tested compounds during a 48-hour incubation. Simultaneously with initiation of treatment, cells were removed from pre-treatment control wells with 5×200 μL washes of TBST (to control for basal GDNF release before the treatment period), and low-serum medium was added to these wells. 6 hours prior to stopping treatment with experimental compounds, the GDNF standard was added to the plate per the manufacturer's instructions. To terminate the treatment, the plate was washed extensively with 200 μl/well TBST washing buffer 5 times, which removed the cells. GDNF release for each well was measured according to GDNF Emax Immunoassay system instructions, and a plate reader was used to measure absorbance at 450 nm. Total GDNF release is calculated from the standard curve using Microsoft Excel. The listed values in Table 1 are presented as fold-increase of release of GDNF over control release of GDNF, corrected for pre-treatment release by subtracting from all values the mean amount of GDNF released in pre-treatment control wells. Statistical significance was determined using the Student's t-test.

| Compound | Fold-Increase of GDNF Concentration [fold] |
| --- | --- |
| CCC1CC2C=CC1N(CCc1c[nH]c3ccc(OC)cc13)C2 (racemic) [Compound 12c, endo-7-ethyl-2-[2-(5-methoxy-1H-indol-3-yl)ethyl]-2-azabicyclo [2.2.2]oct-5-ene] | 2.1 ± 0.1 |

Same assay, conditions: C6 glioma, 48 h, 10 μM compound, 48-hour incubation, fold over control release, corrected for pre-treatment release, read-out: Fold-Increase of GDNF Concentration

| Compound | fold induction at 10 µM |
| --- | --- |
| CCC1CC2C=CC1N(CCc1c[nH]c3ccc(OC)cc13)C2 (racemic) [Compound 10b, exo-7-ethyl-2-[2-(5-methoxy-1H-indol-3-yl)ethyl]-2-azabicyclo[2.2.2]oct-5-ene] | 2.2 ± 0.2 |
| CCC1CC2C=CC1N(CCCc1c[nH]c3ccccc13)C2 (racemic) [Compound 12b, endo-2-[3-(1H-indol-3-yl)propyl]-7-ethyl-2-azabicyclo [2.2.2] oct-5-ene] | 1.5 |
| CCOC(=O)c1[nH]c2ccccc2c1CCN1CC2C=CC1C(CC)C2 (racemic) [Compound 12d, endo-ethyl-3-[2-(7-ethyl-2-azabicyclo[2.2.2]oct-5-en-2-yl)ethyl]-1H-indole-2-carboxylate] | 1.5 |

What follows are compounds tested on GDNF release by C6 glioma cells (assay: GDNF release by conventional ELISA in conditioned media of C6 glioma cells). Conditions: 10 μM compound, 48 h, 0.1% DMSO vehicle, representative experiment.
Assay type: cell-based
From the text: Conventional ELISAs were used to determine compound-induced increases of GDNF concentration in conditioned media of C6 glioma cells, and have afforded increased sensitivity compared to in-situ ELISA in our hands. C6 cells were purchased from ATCC (Manassas, Va.) at passage 37 and were used between passages 41-46. This requirement for a narrow range of passages is based on an observed decrease in magnitude of GDNF release with age of the cell line, and is consistent with reported behavior of C6 cells. All incubations were conducted at 37° C. in a humidified atmosphere containing 5% CO2. GDNF release was measured for each compound in 3 independent experiments. Briefly, C6 cells were seeded into sterile 12-well culture plates (Falcon) at a density of 300,000 cells per well and were recovered for 24 h in 1mL complete growth medium (94% high glucose DMEM, 5% FBS, 1% penicillin/streptomycin). Wells were then washed with 1mL sterile DPBS and were incubated for an additional 24 h with 0.5 mL low-serum medium (98.5% high glucose DMEM, 0.5% FBS, 1% penicillin/streptomycin). On the following day, experimental compounds or DMSO vehicle control were added each to duplicate wells in an additional 0.5 mL of low-serum medium. The final concentration of each compound was 10 μM in 1mL low-serum medium containing 0.1% DMSO. Plates were incubated with compounds and vehicle control for 48 h. Conditioned media were then collected from each well and GDNF concentrations were measured in triplicate on 96-well ELISA plates using the GDNF Emax Immunoassay System from Promega (Madison, Wis.) according to the manufacturer's instructions. A Bio-Tek H1MF plate reader (Burlington, Vt.) was used to measure absorbance from the resulting colorimetric reaction. Total GDNF release for each compound was calculated from the standard curve using Microsoft Excel. Data are normalized to the vehicle control and are thus presented as fold increase of GDNF concentration in experimental wells over that of the vehicle control. Each reported compound afforded a statistically significant increase of GDNF release over the DMSO control in each of three independent experiments conducted on separate days unless otherwise noted. Statistical significance within each experiment was determined by ANOVA followed by Tukey's post-hoc analysis using GraphPad Prism. Because of the naturally high variability of GDNF release values between experiments, data presented herein are intra-assay means from a representative experiment ±intra-assay standard error of the mean (SEM) calculated from biological replicates. Cytotoxicity for each compound was below 20% as measured by LDH levels in conditioned media (Cytotox 96, Promega).
All results (Table 2) represent fold-increase of GDNF release by C6 glioma cells treated with the indicated compound for 48 hours, normalized to the vehicle control. Results are presented from a representative experiment and were determined to be statistically significant (ANOVA) compared to the vehicle control.

| Compound | GDNF Increase ± SEM (fold/vehicle control) |
| --- | --- |
| 6-ethyl-2-(2-(5-fluoro-1H-indol-3-yl)ethyl)-2-azabicyclo[2.2.2]oct-5-ene [Compound 91] | 13.61 ± 0.62 |
| C1=CC2C(Cc3ccccc3)CC1CN2CCc1c[nH]c2ccccc12 (racemic) [Compound 77, exo-2-(2-(1H-indol-3-yl)ethyl)-7-benzyl-2-azabicyclo[2.2.2]oct-5-ene] | 13.22 ± 0.08 |
| CCCC1CC2C=CC1N(CCc1c[nH]c3ccc(F)cc13)C2 (racemic) [Compound 78, endo-2-(2-(5-fluoro-1H-indol-3-yl)ethyl)-7-propyl-2-azabicyclo[2.2.2]oct-5-ene] | 14.39 ± 0.51 |
| CCCCC1CC2C=CC1N(CCc1c[nH]c3ccccc13)C2 (racemic) [Compound 84, exo-2-(2-(1H-indol-3-yl)ethyl)-7-butyl-2-azabicyclo[2.2.2]oct-5-ene] | 12.65 ± 0.66 |
| CCC1CC2C=CC1N(CCc1c[nH]c3cccc(F)c13)C2 (racemic) [Compound 87, endo-7-ethyl-2-(2-(4-fluoro-1H-indol-3-yl)ethyl)-2-azabicyclo[2.2.2]oct-5-ene] | 10.87 ± 0.84 |
| CCC1CC2C=CC1N(CCc1c[nH]c3c(F)cccc13)C2 (racemic) [Compound 89, endo-7-ethyl-2-(2-(7-fluoro-1H-indol-3-yl)ethyl)-2-azabicyclo[2.2.2]oct-5-ene] | 14.71 ± 0.11 |
| CCC1CC2C=CC1N(CCc1csc3ccccc13)C2 (racemic) [Compound 90, endo-2-(2-(benzo[b]thiophen-3-yl)ethyl)-7-ethyl-2-azabicyclo[2.2.2]oct-5-ene] | 11.86 ± 0.01 |
| CCC1CC2C=CC1N(CCCc1c[nH]c3ccccc13)C2 (stereo not drawn) [Compound 81, exo-2-(3-(1H-indol-3-yl)propyl)-7-ethyl-2-azabicyclo[2.2.2]oct-5-ene] | 12.55 ± 0.05 |

Same assay, conditions: C6 glioma, 48 h, 10 μM compound, 0.1% DMSO vehicle, representative experiment, read-out: GDNF Increase ± SEM (fold/vehicle control)

| Compound | fold induction at 10 µM |
| --- | --- |
| CCC1CC2C=CC1N(CCc1c[nH]c3c(F)cccc13)C2 (racemic) [Compound 69, exo-7-ethyl-2-(2-(7-fluoro-1H-indol-3-yl)ethyl)-2-azabicyclo [2.2.2]oct-5-ene] | 12.13 ± 0.01 |
| CCC1CC2C=CC1N(CCc1c[nH]c3cccc(F)c13)C2 (racemic) [Compound 70, exo-7-ethyl-2-(2-(4-fluoro-1H-indol-3-yl)ethyl)-2-azabicyclo[2.2.2]oct-5-ene] | 15.8 ± 0.65 |
| CCC1CC2C=CC1N(CCc1c[nH]c3cc(F)ccc13)C2 (racemic) [Compound 71, exo-7-ethyl-2-(2-(6-fluoro-1H-indol-3-yl)ethyl)-2-azabicyclo[2.2.2]oct-5-ene] | 16.5 ± 0.3 |
| CCC1CC2C=CC1N(CCc1c[nH]c3ccc(F)cc13)C2 (racemic) [Compound 72, exo-7-ethyl-2-(2-(5-fluoro-1H-indol-3-yl)ethyl)-2-azabicyclo[2.2.2]oct-5-ene] | 16.2 ± 0.41 |
| CCC1CC2C=CC1N(CCc1csc3ccccc13)C2 (racemic) [Compound 73, exo-2-(2-(benzo[b]thiophen-3-yl)ethyl)-7-ethyl-2-azabicyclo[2.2.2]oct-5-ene] | 9.87 ± 0.22 |
| CCCC1CC2C=CC1N(CCc1c[nH]c3ccccc13)C2 (racemic) [Compound 75, endo-2-(2-(1H-indol-3-yl)ethyl)-7-propyl-2-azabicyclo [2.2.2]oct-5-ene] | 14.8 ± 0.85 |
| C1=CC2C(Cc3ccccc3)CC1CN2CCc1c[nH]c2ccccc12 (racemic) [Compound 76, endo-2-(2-(1H-indol-3-yl)ethyl)-7-benzyl-2-azabicyclo[2.2.2]oct-5-ene] | 12.8 ± 0.85 |
| CCCC1CC2C=CC1N(CCc1c[nH]c3ccc(F)cc13)C2 (racemic) [Compound 79, exo-2-(2-(5-fluoro-1H-indol-3-yl)ethyl)-7-propyl-2-azabicyclo[2.2.2]oct-5-ene] | 14.6 ± 0.21 |
| C1=CC2C(Cc3cccnc3)CC1CN2CCc1c[nH]c2ccccc12 (racemic) [Compound 80, exo-2-(2-(1H-indol-3-yl)ethyl)-7-(pyridin-3-ylmethyl)-2-azabicyclo[2.2.2]oct-5-ene] | 7.02 ± 1.31 |
| CCC1CC2C=CC1N(CCc1cn(S(=O)(=O)c3ccc(C)cc3)c3ccccc13)C2 (racemic) [Compound 82, exo-7-ethyl-2-(2-(1-tosyl-1H-indol-3-yl)ethyl)-2-azabicyclo[2.2.2]oct-5-ene] | 13.6 ± 1.41 |
| CCCCC1CC2C=CC1N(CCc1c[nH]c3ccccc13)C2 (racemic) [Compound 83, endo-2-(2-(1H-indol-3-yl)ethyl)-7-butyl-2-azabicyclo[2.2.2]oct-5-ene] | 12.8 ± 0.5 |
| Fc1ccc2[nH]cc(CCN3CC4C=CC3C(Cc3ccccc3)C4)c2c1 (racemic) [Compound 85, exo-7-benzyl-2-(2-(5-fluoro-1H-indol-3-yl)ethyl)-2-azabicyclo[2.2.2]oct-5-ene] | 13.2 ± 2.03 |
| C1=CC2C(COCc3ccccc3)CC1CN2CCc1c[nH]c2ccccc12 (racemic) [Compound 86, endo-2-(2-(1H-indol-3-yl)ethyl)-7-(benzyloxymethyl)-2-azabicyclo[2.2.2]oct-5-ene] | 13.8 ± 2.01 |
| CCCC1CC2C=CC1N(CCc1c[nH]c3ccccc13)C2 (stereo not drawn) [Compound 74, exo-2-(2-(1H-indol-3-yl)ethyl)-7-propyl-2-azabicyclo[2.2.2]oct-5-ene] | 7.11 ± 1.17 |
